These results are taken from patent US20100292205A1, “Pyrimidone Compounds As GSK-3 Inhibitors” (PFIZER INC., priority 2006, published 2010).

The target in the first test is T1, Recombinant human GSK3β (Homo sapiens, UniProt P49841).
T1 construct: His-tag; made in house; host or cells: Sf9 insect cells / baculovirus
T1 sequence (P49841 whole entry): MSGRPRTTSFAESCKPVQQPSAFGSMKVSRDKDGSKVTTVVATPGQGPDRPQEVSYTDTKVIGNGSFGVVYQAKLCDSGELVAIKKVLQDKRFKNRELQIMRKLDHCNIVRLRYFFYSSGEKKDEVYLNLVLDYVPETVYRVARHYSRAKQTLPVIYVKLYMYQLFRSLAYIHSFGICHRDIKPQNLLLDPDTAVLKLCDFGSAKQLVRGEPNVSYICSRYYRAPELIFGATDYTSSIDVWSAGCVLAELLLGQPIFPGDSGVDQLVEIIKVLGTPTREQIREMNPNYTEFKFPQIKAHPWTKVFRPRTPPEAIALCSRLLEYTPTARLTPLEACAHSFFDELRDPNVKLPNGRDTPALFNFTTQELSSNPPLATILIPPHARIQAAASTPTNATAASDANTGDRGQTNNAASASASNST
As to the kind of experiment: GSK-3β (Glycogen Synthase Kinase) cell free enzyme assay. The class given is biochemical. To be noted: 1 μM; Examples 157-199; read-out: Percent inhibition at 1 μM. The method, then: Assay Protocol for GSK-3β (Glycogen Synthase Kinase) in a Cell Free Enzyme Assay
Recombinant human GSK3β was expressed in SF9/Baculo virus cells. His-tag protein was purified by affinity chromatography to a Ni-NTA Superflow column. Enzyme activity was assayed as the incorporation of [33P] from the gamma phosphate of [33P]ATP (PerkinElmer) into biotinylated peptide substrate bio-LC-S-R-H-S-S-P-H-Q-pS-E-D-E-E-E-OH (Anaspec). Reactions were carried out in a buffer containing 8 mM MOPS (pH 7.0), 10 mM Magnesium Acetate, 0.2 mM EDTA, 1 mM DTT and 2 uM cold ATP. The 33P-ATP was added for 0.025 uCi/well (120 uL) and the final concentration of substrate was 1.0 uM. Enzyme was preincubated with test agent for 30 minutes at room temperature followed by initiation of the reaction by the addition of substrate mix. Incubations were carried out at RT for 60 min. Reactions were stopped by addition of 0.66 volume of buffer containing: 12.5 mM EDTA, 0.25% Triton-X 100, 125 uM ATP, and 6.2 mg/ml streptavidin coated SPA beads (Amersham) in PBS without Ca or Mg. Radioactivity associated with the beads was quantified by scintillation counting of CPM in a Trilux counter (PerkinElmer).
Examples 42 to 60 were prepared using the analogous procedure described to prepare Example 41, substituting the appropriate starting material (Examples 1 to 35) and coupling with the appropriate acid. The assay protocol used is the percent inhibition at 1 μM for GSK-3β in the cell free enzyme assay described above.
As for `CN(c1nc(-c2ccncc2)cc(=O)n1C)[C@@H]1CC[C@H]2N(S(=O)(=O)Cc3ccccc3)CCC2(C)C1` (stereo partly drawn) [Example 195, 2-{[(3,aS5,R7,aR)-1-(Benzylsulfonyl)-3a-methyloctahydro-1H-indol-5-yl](methyl)amino}-3-methyl-6-pyridin-4-ylpyrimidin-4(3H)-one], the inhibition at 1 µM is 92%. Still for that read-out and setting: next, `CCN(C[C@H]1CCCN1S(C)(=O)=O)c1nc(-c2ccncc2)cc(=O)n1C` [Example 166, 2-(Ethyl{[(2R)-1-(methylsulfonyl)pyrrolidin-2-yl]methyl}amino)-3-methyl-6-pyridin-4-ylpyrimidin-4(3H)-one]: 74%; `Cn1c(NC2CCN(S(=O)(=O)c3ccccc3)C2)nc(-c2ccncc2)cc1=O` (stereo not drawn) [Example 174, 3-Methyl-2-{[1-(phenylsulfonyl)pyrrolidin-3-yl]amino}-6-pyridin-4-ylpyrimidin-4(3H)-one]: 95%.

The test is the same for the next values; noted with them: 1 μM; Examples 201-221; read-out: Percent inhibition at 1 μM.
`COC(=O)N1CC(CNc2nc(-c3ccncc3)cc(=O)n2C)C1` [Example 219, Methyl 3-{[(1-methyl-6-oxo-4-pyridin-4-yl-16-dihydropyrimidin-2-yl)amino]methyl}azetidine-1-carboxylate]: the inhibition at 1 µM was 72%.

The same test, now with this note: 1 μM; Examples 236-262; read-out: Percent inhibition at 1 μM.
On to `Cn1c(N[C@@H]2CC[C@@H](NCc3ccccc3)C2)nc(-c2ccncc2)cc1=O` [Example 262, 2-{[(1R,3R)-3-(Benzylamino)cyclopen-tyl]amino}-3-methyl-6-pyridin-4-ylpyrimidin-4(3H)-one], for which the inhibition at 1 µM was determined as 48%. On the same count and under the same terms, next, `Cn1c(NC2CCCN(Cc3ccccc3)CC2)nc(-c2ccncc2)cc1=O` (stereo not drawn) [Example 237, 2-[(1-Benzylazepan-4-yl)amino]-3-methyl-6-pyridin-4-ylpyrimidin-4(3H)-one]: 84%. The same measure, in the same setting: the value for `CN1CCC(Nc2nc(-c3ccncc3)cc(=O)n2C)C1` (stereo not drawn) [Example 240, 3-Methyl-2-[(1-methylpyrrolidin-3-yl)amino]-6-pyridin-4-ylpyrimidin-4(3H)-one] was 49%.

Staying with this test, now noted: 1 μM; GSK-3β cell free enzyme assay; Examples 42-60; read-out: Percent inhibition at 1 μM.
Take `CC(=O)N1CC[C@@]2(C)C[C@H](N(C)c3nc(-c4ccncc4)cc(=O)n3C)CC[C@@H]12` [Example 55, 2-{[(3a,S5,R7,aR)-1-Acetyl-3a-methyloctahydro-1H-indol-5-yl](methyl)amino}-3-methyl-6-pyridin-4-ylpyrimidin-4(3H)-one]: the inhibition at 1 µM came to 71%. Still for that read-out and setting: next, `CC(=O)N1CCC(Nc2nc(-c3ccncc3)cc(=O)n2C)C1` (stereo not drawn) [Example 45, 2-[(1-Acetylpyrrolidin-3-yl)amino]-3-methyl-6-pyridin-4-ylpyrimidin-4(3H)-one]: 39%.

Still in this test, the particulars now being: cell free enzyme assay; Examples 1-35.
Consider `CCN(C[C@H]1CCCN1C(=O)OC(C)(C)C)c1nc(-c2ccncc2)cc(=O)n1C` [Example 5, tert-butyl (2R)-2-{[Ethyl(1-methyl-6-oxo-4-pyridin-4-yl-1,6-dihydropyrimidin-2-yl)amino]methyl} pyrrolidine-1-carboxylate], for which the half-inhibitory concentration (IC50) turned out to be 2.1 nM. On to `Cn1c(N2CCc3ccccc3C2Cc2ccccc2)nc(-c2ccncc2)cc1=O` (stereo not drawn) [Example 22, 2-(1-Benzyl-3,4-dihydroisoquinolin-2(1H)-yl)-3-methyl-6-pyridin-4-ylpyrimidin-4(3H)-one], for which the IC50 was found to be 37 nM. Still for that read-out and setting: next, `Cn1c(NCC2OCCc3ccccc32)nc(-c2ccncc2)cc1=O` (stereo not drawn) [Example 3, 2-[(3,4-dihydro-1H-Isochromen-1-ylmethyl)amino]-3-methyl-6-pyridin-4-ylpyrimidin-4(3H)-one]: 23 nM; `CN(c1nc(-c2ccncc2)cc(=O)n1C)[C@@H]1CC[C@H]2N(C(=O)OC(C)(C)C)CC[C@@]2(C)C1` [Example 31, tert-butyl (3aS,5R,7aR)-3a-Methyl-5-[methyl(1-methyl-6-oxo-4-pyridin-4-yl-1,6-dihydropyrimidin-2-yl)amino]octahydro-1H-indole-1-carboxylate]: 30.1 nM.

Still in this test, the particulars now being: cell free enzyme assay; Examples 62-155.
`Cn1c(NC2CCN(C(=O)c3ccccc3)C2)nc(-c2ccncc2)cc1=O` (stereo not drawn) [Example 62, 2-[(1-Benzoylpyrrolidin-3-yl)amino]-3-methyl-6-pyridin-4-ylpyrimidin-4(3H)-one]: the IC50 is 77.5 nM. On the same count and under the same terms, next, `Cn1c(NC2CCCN(C(=O)c3ccccc3)C2)nc(-c2ccncc2)cc1=O` (stereo not drawn) [Example 66, 2-[(1-Benzoylpiperidin-3-yl)amino]-3-methyl-6-pyridin-4-ylpyrimidin-4(3H)-one]: 1000 nM; `CN(c1nc(-c2ccncc2F)cc(=O)n1C)[C@H]1[C@@H]2CN(C(=O)c3cccc(C(F)(F)F)c3)C[C@@H]21` [Example 125, 6-(3-Fluoropyridin-4-yl)-3-methyl-2-(methyl{(1R,5S,6s)-3-[3-(trifluoromethyl)benzoyl]-3-azabicyclo[3.1.0]hex-6-yl}amino)pyrimidin-4(3H)-one]: 2.11 nM.

With `Cn1c(NCC2CN(C(=O)c3ccccc3)C2)nc(-c2ccncc2)cc1=O` [Example 76, 2-{[(1-Benzoylazetidin-3-yl)methyl]amino}-3-methyl-6-pyridin-4-ylpyrimidin-4(3H)-one], the IC50 turned out to be 72.4 nM. Consider `CN(c1nc(-c2ccncc2F)cc(=O)n1C)[C@H]1[C@@H]2CN(C(=O)c3ccc(Cl)nc3)C[C@@H]21` [Example 126, 2-[{(1R,5S,6s)-3-[(6-Chloropyridin-3-yl)carbonyl]-3-azabicyclo[3.1.0]hex-6-yl}(methyl)amino]-6-(3-fluoropyridin-4-yl)-3-methylpyrimidin-4(3H)-one], for which the IC50 turned out to be 6.98 nM.

Regarding `CCCCC(=O)N1C[C@@H]2[C@H](C1)[C@H]2N(C)c1nc(-c2ccncc2F)cc(=O)n1C` [Example 128, 6-(3-Fluoropyridin-4-yl)-3-methyl-2-{methyl[(1R,5S,6s)-3-pentanoyl-3-azabicyclo[3.1.0]hex-6-yl]amino}pyrimidin-4(3H)-one], the IC50 turned out to be 16.4 nM. On the same count and under the same terms, next, `Cn1c(NCC2CCN(C(=O)c3ccccc3)C2)nc(-c2ccncc2)cc1=O` (stereo not drawn) [Example 79, 2-{[(1-Benzoylpyrrolidin-3-yl)methyl]amino}-3-methyl-6-pyridin-4-ylpyrimidin-4(3H)-one]: 69.9 nM; `CN(c1nc(-c2ccncc2F)cc(=O)n1C)C1[C@H]2CN(C(=O)C34CC[C@@](C)(C(=O)O3)C4(C)C)C[C@@H]12` (stereo partly drawn) [Example 134, 6-(3-Fluoropyridin-4-yl)-3-methyl-2-{methyl[(1R,5S,6R)-3-{[(1S,4R)-4,7,7-trimethyl-3-oxo-2-oxabicyclo[2.2.1]hept-1-yl]carbonyl}-3-azabicyclo[3.1.0]hex-6-yl]amino}pyrimidin-4(3H)-one]: 65.7 nM.

The test is the same for the next values; noted with them: cell free enzyme assay; Examples 222-234.
For the molecule `CCN(C[C@@H]1CCCN1C(=O)OC)c1nc(-c2ccncn2)cc(=O)n1C` [Example 224, Methyl (2S)-2-{[ethyl(1-methyl-6-oxo-1,6-dihydro-4,4′-bipyrimidin-2-yl)amino]methyl}pyrrolidine-1-carboxylate], the IC50 was 1.11 nM. The same measure, in the same setting: the value for `COC(=O)N1CCCC(N(C)c2nc(-c3ccncn3)cc(=O)n2C)C1` (stereo not drawn) [Example 223, Methyl 3-[methyl(1-methyl-6-oxo-1,6-dihydro-4,4′-bipyrimidin-2-yl)amino]piperidine-1-carboxylate] was 1.04 nM.

Still in this test, the particulars now being: cell free enzyme assay; Examples 265-291.
For `Cc1nnc2c(N3C[C@@H]4[C@H](C3)[C@H]4N(C)c3nc(-c4ccncc4F)cc(=O)n3C)nc(-c3ccccc3)cn12` [Example 274, 6-(3-Fluoropyridin-4-yl)-3-methyl-2-{methyl[(1R,5S,6s)-3-(3-methyl-6-phenyl[1,2,4]triazolo[4,3-a]pyrazin-8-yl)-3-azabicyclo[3.1.0]hex-6-yl]amino}pyrimidin-4(3H)-one], the IC50 came out at 234 nM. For the molecule `CN(c1nc(-c2ccncc2F)cc(=O)n1C)[C@H]1[C@@H]2CN(c3nc4ccccc4[nH]3)C[C@@H]21` [Example 272, 2-{[(1R,5S,6s)-3-(1H-Benzimidazol-2-yl)-3-azabicyclo[3.1.0]hex-6-yl](methyl)amino}-6-(3-fluoropyridin-4-yl)-3-methylpyrimidin-4(3H)-one], the concentration for half-maximal inhibition (IC50) came to 76.1 nM. Still for that read-out and setting: the value for `CN(c1nc(-c2ccncc2F)cc(=O)n1C)[C@H]1[C@@H]2CN(c3nnnn3Cc3ccc(C#N)cc3)C[C@@H]21` [Example 271, 4-({5-[(1R,5S,6s)-6-{[4-(3-Fluoropyridin-4-yl)-1-methyl-6-oxo-1,6-dihydropyrimidin-2-yl](methyl)amino}-3-azabicyclo[3.1.0]hex-3-yl]-1H-tetrazol-1-yl}methyl)benzonitrile] was 8.8 nM; that for `CN(c1nc(-c2ccncc2F)cc(=O)n1C)[C@H]1[C@@H]2CN(c3nnnn3Cc3cccc(OC(F)(F)F)c3)C[C@@H]21` [Example 290, 6-(3-Fluoropyridin-4-yl)-3-methyl-2-{methyl[(1R,5S,6s)-3-{1-[3-(trifluoromethoxy)benzyl]-1H-tetrazol-5-yl}-3-azabicyclo[3.1.0]hex-6-yl]amino}pyrimidin-4(3H)-one] was 27.7 nM.

For orientation: inhibition means the change of the read-out against control, counted positive when it falls. By IC50 is commonly meant the concentration at which inhibition is half-maximal.
